The subject of one assay is HEK293. Nature of the assay: cells. It counts as functional. The following applies: Homo sapiens, ATCC CRL1573, HEK293; ASSAY_TEST Inhibition of Cell Viability; detection method Resazurin; Fluorescence (ex560/em590); MEDIA DMEM with 10% FBS; plate type 384well; TC; CORNING #3712; time 18 hr.
For the next assay, the system named is Staphylococcus aureus. Nature of the assay: microbe, parasite or virus in culture. The settings on record: ATCC 43300, 18 h, ASSAY_TEST Inhibition of Bacterial Growth, detection method Absorption (OD600), MEDIA CAMHB, plate type 384well, NBS, CORNING #3640.
The next assay relates to Escherichia coli. The assay can be described thus: microbe, parasite or virus in culture. The following applies: ATCC 25922, 18 h, ASSAY_TEST Inhibition of Bacterial Growth, detection method Absorption (OD600), MEDIA CAMHB, plate type 384well, NBS, CORNING #3640.
For a further assay, the system named is Klebsiella pneumoniae. Nature of the assay: microbe, parasite or virus in culture. The settings on record: ATCC 700603, 18 h, ASSAY_TEST Inhibition of Bacterial Growth, detection method Absorption (OD600), MEDIA CAMHB, plate type 384well, NBS, CORNING #3640.
The next assay concerns Pseudomonas aeruginosa. Nature of the assay: microbe, parasite or virus in culture. The following applies: ATCC 27853, 18 h, ASSAY_TEST Inhibition of Bacterial Growth, detection method Absorption (OD600), MEDIA CAMHB, plate type 384well, NBS, CORNING #3640.
The subject of another assay is Acinetobacter baumannii. Nature of the assay: microbe, parasite or virus in culture. The following applies: ATCC 19606, 18 h, ASSAY_TEST Inhibition of Bacterial Growth, detection method Absorption (OD600), MEDIA CAMHB, plate type 384well, NBS, CORNING #3640.
Another assay relates to Candida albicans. Nature of the assay: microbe, parasite or virus in culture. The settings on record: ATCC 90028, ASSAY_TEST Inhibition of Fungal Growth, detection method Absorption (OD530), plate type 384well, NBS, CORNING #3640.

Experimental findings from ChEMBL document CHEMBL4296182, “CO-ADD screening of NIH NCI Diversity Set V” are described below.

The structures appear in SMILES notation. ≈ marks a conversion by molar mass, not a printed value. A value given as a limit tells only on which side of the number the result lay.

Description for Acinetobacter baumannii: Antibacterial activity against Acinetobacter baumannii ATCC 19606 (CO-ADD:GN_034); MIC in CAMBH media using NBS plates, by OD600
Description for Candida albicans: Antifungal activity against Candida albicans ATCC 90028 (CO-ADD:FG_001); MIC in YNB media using NBS plates, by OD630
Description for Cryptococcus neoformans: Antifungal activity against Cryptococcus neoformans H99 ATCC 208821 (CO-ADD:FG_002); MIC in YNB media using NBS plates, by Resazurin OD(600-570)
Description for Escherichia coli: Antibacterial activity against Escherichia coli ATCC 25922 (CO-ADD:GN_001); MIC in CAMBH media using NBS plates, by OD(600)
Description for Klebsiella pneumoniae: Antibacterial activity against Klebsiella pneumoniae MDR ATCC 70063 (CO-ADD:GN_003); MIC in CAMBH media using NBS plates, by OD(600)
Description for Pseudomonas aeruginosa: Antibacterial activity against Pseudomonas aeruginosa ATCC 27853 (CO-ADD:GN_042); MIC in CAMBH media using NBS plates, by OD(600)
Description for Staphylococcus aureus: Antibacterial activity against Staphylococcus aureus MRSA ATCC 43300 (CO-ADD:GP_020); MIC in CAMBH media, using NBS plates, by OD(600)

Take `COC1C(OC(=O)c2ccc(C)[nH]2)C(O)C(Oc2ccc3c(O)c(NC(=O)c4ccc(O)c(CC=C(C)C)c4)c(=O)oc3c2Cl)OC1(C)C` (centres undefined): the CC50 with HEK293 worked out at 9.55 µM. Besides, the MIC with Cryptococcus neoformans was over 10 µM; in the assay on Staphylococcus aureus, at most 0.0781 µM; in the assay on Escherichia coli, over 10 µM; in the assay with Klebsiella pneumoniae, over 10 µM; against Pseudomonas aeruginosa it was 10 µM (≈ 6.97 µg/mL); with Acinetobacter baumannii, over 10 µM. The MIC against Candida albicans was over 10 µM.
As to `O=C(Nc1ccc(C2=NCCN2)cc1)c1ccc(Cl)c(C(=O)Nc2ccc(C3=NCCN3)cc2)c1`, the CC50 in the assay on HEK293 is over 10 µM. The MIC in the assay with Cryptococcus neoformans, in the assay with Staphylococcus aureus, with Escherichia coli, against Klebsiella pneumoniae, against Pseudomonas aeruginosa and in the assay with Acinetobacter baumannii was over 10 µM each time. The compound also displayed an MIC against Candida albicans of over 10 µM.
In the assay with HEK293, `Cc1c(N2CCCC2)cc2c(c1NC(=O)c1ccccc1Cl)C(C)(C)CC2(C)C` registered a CC50 of over 10 µM. The MIC against Cryptococcus neoformans, against Staphylococcus aureus, with Escherichia coli, against Klebsiella pneumoniae, against Pseudomonas aeruginosa and against Acinetobacter baumannii was over 10 µM in each case. The same compound registered an MIC against Candida albicans of over 10 µM.
The compound `O=C(Nc1ccc(Nc2ccncc2)cc1)c1ccc(Nc2ccnc3ccc([N+](=O)[O-])cc23)cc1[N+](=O)[O-]` came in with a CC50 with HEK293 of over 10 µM. Moreover, the MIC against Cryptococcus neoformans, in the assay on Staphylococcus aureus, against Escherichia coli, with Klebsiella pneumoniae, against Pseudomonas aeruginosa and in the assay on Acinetobacter baumannii was over 10 µM each time. Further, in the assay on Candida albicans, the MIC was over 10 µM.
The compound `O=C(Nc1ccc(Nc2ccncc2)cc1)c1ccc(Nc2ccnc3ccc([N+](=O)[O-])cc23)cc1` had a CC50 in the assay with HEK293 of over 10 µM. Also, the MIC against Cryptococcus neoformans is 2.5 µM (≈ 1.19 µg/mL); in the assay with Staphylococcus aureus it was over 10 µM; in the assay on Escherichia coli, over 10 µM; against Klebsiella pneumoniae, over 10 µM; in the assay on Pseudomonas aeruginosa, over 10 µM; against Acinetobacter baumannii, over 10 µM. This compound also displayed an MIC in the assay on Candida albicans of over 10 µM.
As to `Nc1nc(N)c2cc(Sc3ccc4ccccc4c3)ccc2n1`, the CC50 in the assay with HEK293 amounted to 4.64 µM. Besides, the MIC was over 10 µM in the assay with Cryptococcus neoformans; 0.156 µM (≈ 0.0498 µg/mL) in the assay with Staphylococcus aureus; 5 µM (≈ 1.59 µg/mL) against Escherichia coli; over 10 µM in the assay with Klebsiella pneumoniae; over 10 µM against Pseudomonas aeruginosa; over 10 µM against Acinetobacter baumannii. Besides, the MIC with Candida albicans was over 10 µM.
In the assay with HEK293, `N=C(Nc1nc(-c2ccccn2)cc2ccccc12)c1ccccn1` showed a CC50 of over 10 µM. Moreover, the MIC in the assay on Cryptococcus neoformans is 10 µM (≈ 3.25 µg/mL); against Staphylococcus aureus, over 10 µM; against Escherichia coli it was over 10 µM; with Klebsiella pneumoniae, over 10 µM; with Pseudomonas aeruginosa, over 10 µM; in the assay with Acinetobacter baumannii it was over 10 µM. The MIC with Candida albicans was 5 µM (≈ 1.63 µg/mL).
Turning to `CC[C@@]1(O)C(=O)OCc2c1cc1n(c2=O)Cc2cc3c(NC(=O)CN)cccc3nc2-1`, the CC50 with HEK293 amounted to 0.6 µM. Moreover, the MIC in the assay on Cryptococcus neoformans, with Staphylococcus aureus, in the assay on Escherichia coli, with Klebsiella pneumoniae, against Pseudomonas aeruginosa and against Acinetobacter baumannii was over 10 µM in each case. The compound further had an MIC in the assay with Candida albicans of over 10 µM.
Regarding `O=C(Nc1ccc(C2=NCCN2)cc1)c1ccc(C(=O)Nc2ccc(C3=NCCN3)cc2)c(Cl)c1`, the CC50 in the assay with HEK293 is over 10 µM. The MIC against Cryptococcus neoformans, in the assay with Staphylococcus aureus, in the assay on Escherichia coli, in the assay on Klebsiella pneumoniae, against Pseudomonas aeruginosa and in the assay on Acinetobacter baumannii was over 10 µM each time. The compound further registered an MIC against Candida albicans of over 10 µM.
In the assay on HEK293, `CC(C)c1ccc2c(c1)CCC1C(C)(CN)CCCC21C` (centres undefined) displayed a CC50 of 8.3 µM. The MIC against Cryptococcus neoformans, with Staphylococcus aureus, in the assay on Escherichia coli, in the assay on Klebsiella pneumoniae, in the assay with Pseudomonas aeruginosa and against Acinetobacter baumannii was over 10 µM in each case. The compound also had an MIC in the assay with Candida albicans of over 10 µM.
On to `O=C(Nc1cccc(-c2nc3ccccc3[nH]2)c1)c1ccc(C(=O)Nc2cccc(-c3nc4ccccc4[nH]3)c2)cc1`, for which the CC50 in the assay with HEK293 is over 10 µM. For the same compound, the MIC in the assay on Cryptococcus neoformans, against Staphylococcus aureus, with Escherichia coli, in the assay with Klebsiella pneumoniae, with Pseudomonas aeruginosa and with Acinetobacter baumannii was over 10 µM each time. The same compound came in with an MIC in the assay on Candida albicans of over 10 µM.
In the assay with HEK293, `CCOC(=O)c1ccc(Nc2sc(C(=O)c3cccc([N+](=O)[O-])c3)c(N)c2C#N)cc1` gave a CC50 of over 10 µM. In addition, the MIC against Cryptococcus neoformans, with Staphylococcus aureus, with Escherichia coli, in the assay with Klebsiella pneumoniae, against Pseudomonas aeruginosa and in the assay with Acinetobacter baumannii was over 10 µM in each case. The compound also returned an MIC in the assay with Candida albicans of over 10 µM.
Take `CCN(CC)c1ccc(C(=C2C=CC(=[N+](CC)CC)C=C2)c2ccc(N(CC)CC)cc2)cc1`: it took 1.47 µM to reach half-maximal cytotoxicity in the assay with HEK293 (CC50). The MIC against Cryptococcus neoformans was 1.25 µM; against Staphylococcus aureus, at most 0.0781 µM; in the assay with Escherichia coli it was over 10 µM; in the assay on Klebsiella pneumoniae, over 10 µM; in the assay on Pseudomonas aeruginosa it was 2.5 µM; against Acinetobacter baumannii, over 10 µM. In the assay with Candida albicans, this compound returned an MIC of at most 0.0781 µM.
`Cc1c2cc[n+](CCN3CCCCC3)cc2c(C)c2c1[nH]c1ccc(O)cc12` gave a CC50 in the assay on HEK293 of over 10 µM. In addition, the MIC against Cryptococcus neoformans was 10 µM; in the assay on Staphylococcus aureus, over 10 µM; with Escherichia coli, over 10 µM; with Klebsiella pneumoniae, over 10 µM; against Pseudomonas aeruginosa, over 10 µM; in the assay on Acinetobacter baumannii it was over 10 µM. In the assay on Candida albicans, the MIC is over 10 µM.
Take `C=Cc1cc(OC)c2c(c1)c(=O)oc1c2cc(OC)c2c(O)ccc(C3OC(C)C(O)C(C)(O)C3O)c21` (centres undefined): the midpoint of cytotoxicity in the assay on HEK293, the CC50, lay at 1.85 µM. The MIC is over 10 µM with Cryptococcus neoformans; 0.156 µM (≈ 0.0795 µg/mL) in the assay with Staphylococcus aureus; over 10 µM in the assay with Escherichia coli; over 10 µM with Klebsiella pneumoniae; over 10 µM against Pseudomonas aeruginosa; over 10 µM with Acinetobacter baumannii. This compound also returned an MIC in the assay on Candida albicans of over 10 µM.
`N=C(N)NCCCS(=O)(=O)Nc1ccc(Nc2c3ccccc3nc3cc([N+](=O)[O-])ccc23)cc1` registered a CC50 in the assay with HEK293 of over 10 µM. Moreover, the MIC in the assay on Cryptococcus neoformans, in the assay with Staphylococcus aureus, against Escherichia coli, against Klebsiella pneumoniae, in the assay with Pseudomonas aeruginosa and in the assay on Acinetobacter baumannii was over 10 µM each time. Moreover, in the assay on Candida albicans, the MIC was over 10 µM.
For `COC1CC(C)C(OC)c2cc(O)cc(c2O)NC(=O)/C(C)=C/C=C\C(C)C(OC(N)=O)/C(C)=C\C(C)C1OC` (centres undefined), the CC50 in the assay with HEK293 was 1.09 µM. Besides, the MIC in the assay with Cryptococcus neoformans, in the assay on Staphylococcus aureus, against Escherichia coli, in the assay with Klebsiella pneumoniae, in the assay with Pseudomonas aeruginosa and against Acinetobacter baumannii was over 10 µM in each case. Moreover, the MIC in the assay with Candida albicans is over 10 µM.
With `Nc1ccc(Cn2ccc3c4c(N)nc(N)nc4ccc32)cc1`, the CC50 in the assay with HEK293 was over 10 µM. Moreover, the MIC against Cryptococcus neoformans is over 10 µM; in the assay on Staphylococcus aureus, 1.25 µM (≈ 0.38 µg/mL); in the assay on Escherichia coli, 1.25 µM (≈ 0.38 µg/mL); with Klebsiella pneumoniae, 5 µM (≈ 1.52 µg/mL); against Pseudomonas aeruginosa it was 5 µM (≈ 1.52 µg/mL); in the assay with Acinetobacter baumannii, over 10 µM. In the assay on Candida albicans, this compound returned an MIC of over 10 µM.
`CN(C)c1n/c(=N/c2cccc(Cl)c2)ss1`: the CC50 in the assay with HEK293 was over 10 µM. Moreover, the MIC against Cryptococcus neoformans, with Staphylococcus aureus, against Escherichia coli, against Klebsiella pneumoniae, in the assay on Pseudomonas aeruginosa and in the assay with Acinetobacter baumannii was over 10 µM each time. The compound also came in with an MIC in the assay with Candida albicans of 10 µM (≈ 2.72 µg/mL).
In the assay with HEK293, `CN(C)CCOc1ccc2c(c1)C(=O)/C(=C\c1ncc([N+](=O)[O-])n1C)C2` showed a CC50 of 1.55 µM. The MIC was over 10 µM in the assay on Cryptococcus neoformans; 5 µM (≈ 1.78 µg/mL) with Staphylococcus aureus; 0.156 µM (≈ 0.0557 µg/mL) with Escherichia coli; over 10 µM in the assay on Klebsiella pneumoniae; over 10 µM against Pseudomonas aeruginosa; over 10 µM against Acinetobacter baumannii. In addition, the MIC with Candida albicans is over 10 µM.
In the assay with HEK293, `O=C1C=CC(=O)N1c1ccc(I)cc1Cl` returned a CC50 of over 10 µM. The MIC in the assay with Cryptococcus neoformans, against Staphylococcus aureus, against Escherichia coli, with Klebsiella pneumoniae, in the assay on Pseudomonas aeruginosa and against Acinetobacter baumannii was over 10 µM in each case. In addition, the MIC in the assay with Candida albicans was over 10 µM.
Consider `COC1CC2\C=C(C)/C=C/C=C/C(=O)NC(c3ccccc3)C/C=C/CCC(O)CC(=O)C2=C1O` (centres undefined), for which, in the assay on HEK293, the CC50 is 2.08 µM. The MIC was 5 µM (≈ 2.39 µg/mL) in the assay on Cryptococcus neoformans; 0.156 µM (≈ 0.0746 µg/mL) against Staphylococcus aureus; over 10 µM with Escherichia coli; over 10 µM with Klebsiella pneumoniae; over 10 µM against Pseudomonas aeruginosa; over 10 µM against Acinetobacter baumannii. In the assay on Candida albicans, this compound yielded an MIC of 1.25 µM (≈ 0.597 µg/mL).
`O=[N+]([O-])c1oc2ccc3ccccc3c2c1CCO` yielded a CC50 in the assay on HEK293 of 1.13 µM. In addition, the MIC was over 10 µM with Cryptococcus neoformans; 2.5 µM (≈ 0.643 µg/mL) against Staphylococcus aureus; 5 µM (≈ 1.29 µg/mL) against Escherichia coli; over 10 µM against Klebsiella pneumoniae; over 10 µM in the assay with Pseudomonas aeruginosa; over 10 µM in the assay with Acinetobacter baumannii. In the assay on Candida albicans, the MIC was over 10 µM.
